We go through 48 compounds from patent publication US8604061B2, “2-aminooxazolines as TAAR1 ligands” (Hoffmann-La Roche Inc., priority 2007, dated 2013).

The experiment deals with TAAR1 (Mus musculus, UniProt Q923Y8). Kind of experiment: TAAR1 radioligand binding, membranes of stably transfected HEK293 cells (mouse). The gist of the method:
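Competition binding on membranes from HEK293 cells stably expressing the TAAR1 species ortholog, in HEPES-NaOH pH 7.0 with 10 mM MgCl2 and 2 mM CaCl2, 30 min at 4° C with [3H]-rac-2-(1,2,3,4-tetrahydro-1-naphthyl)-2-imidazoline. Competitors 10 pM–30 μM, duplicates; non-specific binding with 10 μM unlabelled ligand; filtration and scintillation counting.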

[1] abbreviates: mouse/rat, cell not marked 'rat', radioligand [3H]-rac-2-(1,2,3,4-tetrahydro-1-naphthyl)-2-imidazoline, 4° C., read-out: Ki (μM) mouse/rat.

Like-named read-outs stand apart in the source and are kept apart here.

In the case of `CC[C@]1(c2ccc(Cl)c(Cl)c2)COC(N)=N1` [Example 328, (S)-4-(3,4-Dichloro-phenyl)-4-ethyl-4,5-dihydro-oxazol-2-ylamine], the Ki under setting [1] turned out to be 0.0052 µM.

In turn, `NC1=N[C@@H](c2ccc(-c3ccccc3)cc2)CO1` [Example 21 (S), (S)-4-Biphenyl-4-yl-4,5-dihydro-oxazol-2-ylamine] returned a Ki of 0.0008 µM.

Turning to `Cc1cccc(CC[C@H]2COC(N)=N2)c1` [Example 115, (S)-4-(2-m-Tolyl-ethyl)-4,5-dihydro-oxazol-2-ylamine], the Ki was determined as 0.001 µM.

Consider `NC1=N[C@@H](COc2ccccc2F)CO1` [Example 354, (S)-4-(2-Fluoro-phenoxymethyl)-4,5-dihydro-oxazol-2-ylamine], for which the Ki under setting [1] is 0.0003 µM.

On to `NC1=N[C@@H](CCc2ccc(F)cc2F)CO1` [Example 88], for which, under setting [1], the Ki stood at 0.001 µM.

`NC1=NC(c2ccc(Cl)cc2)CO1` (racemic) [Example 5, (RS)-4-(4-Chloro-phenyl)-4,5-dihydro-oxazol-2-ylamine] returned a Ki of 0.0021 µM.

The compound `NC1=NC(c2ccc(OCc3ccccc3)cc2)CO1` (racemic) [Example 22, (RS)-4-(4-Benzyloxy-phenyl)-4,5-dihydro-oxazol-2-ylamine] gave a Ki of 0.0011 µM.

For `NC1=N[C@@H](Cc2ccccc2Cl)CO1` [Example 60, (S)-4-(2-Chloro-benzyl)-4,5-dihydro-oxazol-2-ylamine], the Ki under setting [1] stood at 0.0047 µM.

As to `NC1=N[C@@H](CCc2cccc(C(F)(F)F)n2)CO1` [Example 212, (S)-4-[2-(6-Trifluoromethyl-pyridin-2-yl)-ethyl]-4,5-dihydro-oxazol-2-ylamine], the Ki under setting [1] was found to be 0.0068 µM.

As for `Cc1ccc(F)c(CC2COC(N)=N2)c1` (racemic) [Example 73, (RS)-4-(2-Fluoro-5-methyl-benzyl)-4,5-dihydro-oxazol-2-ylamine], the Ki under setting [1] came out at 0.0089 µM.

With `NC1=N[C@@H](c2cc(Cl)cc(Cl)c2)CO1` [Example 201, (+)-(S)-4-(3,5-Dichloro-phenyl)-4,5-dihydro-oxazol-2-ylamine], the Ki under setting [1] is 0.0002 µM.

`NC1=N[C@@H](COc2ccc(F)cc2)CO1` [Example 213, (S)-4-(4-Fluoro-phenoxymethyl)-4,5-dihydro-oxazol-2-ylamine]: under setting [1], the Ki came out at 0.003 µM.

Turning to `NC1=N[C@@H](CCc2ccccc2F)CO1` [Example 111, (S)-4-[2-(2-Fluoro-phenyl)-ethyl]-4,5-dihydro-oxazol-2-ylamine], the Ki under setting [1] is 0.0011 µM.

In the case of `C[C@@]1(c2ccccc2F)COC(N)=N1` [Example 196, (R)-4-(2-Fluoro-phenyl)-4-methyl-4,5-dihydro-oxazol-2-ylamine], the Ki under setting [1] was 0.0066 µM.

With `C[C@]1(c2cc(F)cc(Cl)c2)COC(N)=N1` [Example 266, (S)-4-(3-Chloro-5-fluoro-phenyl)-4-methyl-4,5-dihydro-oxazol-2-ylamine], the Ki under setting [1] was determined as 0.0016 µM.

With `NC1=N[C@@H](c2cc(Cl)ccc2C(F)(F)F)CO1` [Example 341, (+)-(S)-4-(5-Chloro-2-trifluoromethyl-phenyl)-4,5-dihydro-oxazol-2-ylamine], the Ki under setting [1] came to 0.0046 µM.

For `NC1=N[C@@H](CCc2c(F)cccc2Cl)CO1` [Example 303, (S)-4-[2-(2-Chloro-6-fluoro-phenyl)-ethyl]-4,5-dihydro-oxazol-2-ylamine], under setting [1], the Ki was found to be 0.0011 µM.

For the compound `NC1=N[C@H](c2cc(Cl)c(Cl)cc2C(F)(F)F)CO1` [Example 243, (−)-(R)-4-(4,5-Dichloro-2-trifluoromethyl-phenyl)-4,5-dihydro-oxazol-2-ylamine], the Ki under setting [1] came to 0.0094 µM.

Regarding `CCC(C[C@H]1COC(N)=N1)c1ccc(F)c(Cl)c1` (stereo partly drawn) [Example 356, (S)-4-[2-(3-Chloro-4-fluoro-phenyl)-butyl]-4,5-dihydro-oxazol-2-ylamine], the Ki under setting [1] amounted to 0.0043 µM.

On to `NC1=N[C@@H](CSc2ccccc2)CO1` [Example 195, (R)-4-Phenylsulfanylmethyl-4,5-dihydro-oxazol-2-ylamine], for which the Ki under setting [1] is 0.0018 µM.

As for `C[C@]1(c2ccc(F)c(Cl)c2)COC(N)=N1` [Example 277, (S)-4-(3-chloro-4-fluoro-phenyl)-4-methyl-4,5-dihydro-oxazol-2-ylamine], the Ki under setting [1] was 0.0016 µM.

Compound `NC1=NC(c2cccc(Br)c2)CO1` (racemic) [Example 186, (RS)-4-(3-Bromo-phenyl)-4,5-dihydro-oxazol-2-ylamine] returned a Ki of 0.0045 µM.

With `CC1(c2cc(Cl)ccc2Cl)COC(N)=N1` (racemic) [Example 299, (RS)-4-(2,5-Dichloro-phenyl)-4-methyl-4,5-dihydro-oxazol-2-ylamine], the Ki was found to be 0.0042 µM.

With `Cc1ccc([C@H]2COC(N)=N2)cc1Cl` [Example 374, (+)-(S)-4-(3-Chloro-4-methyl-phenyl)-4,5-dihydro-oxazol-2-ylamine], under setting [1], the Ki stood at 0.0006 µM.

For `NC1=N[C@@H](CCc2cccc(C(F)(F)F)c2F)CO1` [Example 142, (S)-4-[2-(2-Fluoro-3-trifluoromethyl-phenyl)-ethyl]-4,5-dihydro-oxazol-2-ylamine], the Ki under setting [1] came to 0.0018 µM.

On to `CC1(c2cc(F)c(Cl)cc2F)COC(N)=N1` (racemic) [Example 271, (RS)-4-Methyl-4-(4-chloro-2,5-difluoro-phenyl)-4,5-dihydro-oxazol-2-ylamine], for which the Ki worked out at 0.0013 µM.

For the compound `NC1=N[C@@H](c2ccccc2Br)CO1` [Example 265, (+)-(S)-4-(2-Bromo-phenyl)-4,5-dihydro-oxazol-2-ylamine], the Ki under setting [1] was 0.0009 µM.

In the case of `NC1=N[C@@H](CCc2ccc(Cl)c(Cl)c2)CO1` [Example 127, (S)-4-[2-(3,4-Dichloro-phenyl)-ethyl]-4,5-dihydro-oxazol-2-ylamine], the Ki under setting [1] was 0.0003 µM.

In the case of `NC1=NC(c2ccc(OC(F)(F)F)cc2)CO1` (racemic) [Example 12, (RS)-4-(4-Trifluoromethoxy-phenyl)-4,5-dihydro-oxazol-2-ylamine], the Ki came out at 0.008 µM.

For `NC1=NC(c2ccc(Cl)c(Cl)c2)CO1` (racemic) [Example 14, (RS)-4-(3,4-Dichlorophenyl)-4,5-dihydro-oxazol-2-ylamine], the Ki was found to be 0.0005 µM.

The compound `Cc1ccccc1C1COC(N)=N1` (racemic) [Example 8, (RS)-4-o-Tolyl-4,5-dihydro-oxazol-2-ylamine] came in with a Ki of 0.0058 µM.

In the case of `NC1=N[C@@H](CCc2ccc(F)c(C(F)(F)F)c2)CO1` [Example 133, (S)-4-[2-(4-Fluoro-3-trifluoromethyl-phenyl)-ethyl]-4,5-dihydro-oxazol-2-ylamine], the Ki under setting [1] turned out to be 0.0022 µM.

`NC1=NC(c2cc(F)ccc2C(F)(F)F)CO1` (racemic) [Example 249, (RS)-4-(5-Fluoro-2-trifluoromethyl-phenyl)-4,5-dihydro-oxazol-2-ylamine] returned a Ki of 0.0075 µM.

With `NC1=NC(CCc2ccccc2)CO1` (racemic) [D, (RS)-4-Phenethyl-4,5-dihydro-oxazol-2-ylamine, reference compound], the Ki turned out to be 0.001 µM.

Regarding `NC1=NC(c2ccc(-c3ccc(Cl)cc3)cc2)CO1` (racemic) [Example 31, (RS)-4-(4′-Chloro-biphenyl-4-yl)-4,5-dihydro-oxazol-2-ylamine], the Ki worked out at 0.0022 µM.

In the case of `NC1=N[C@@H](CCc2ccc(F)cc2Cl)CO1` [Example 139, (S)-4-[2-(2-Chloro-4-fluoro-phenyl)-ethyl]-4,5-dihydro-oxazol-2-ylamine], the Ki amounted to 0.0019 µM.

Consider `Cc1cc(CC[C@H]2COC(N)=N2)ccn1` [Example 220, (S)-4-[2-(2-Methyl-pyridin-4-yl)-ethyl]-4,5-dihydro-oxazol-2-ylamine], for which the Ki under setting [1] came to 0.0084 µM.

As for `NC1=N[C@@H](CCc2cc(Cl)cc(Cl)c2)CO1` [Example 138, (S)-4-[2-(3,5-Dichloro-phenyl)-ethyl]-4,5-dihydro-oxazol-2-ylamine], under setting [1], the Ki amounted to 0.0012 µM.

For `CCC(C[C@H]1COC(N)=N1)c1ccc(F)c(F)c1` (stereo partly drawn) [Example 211, (S)-4-[2-(3,4-Difluoro-phenyl)-butyl]-4,5-dihydro-oxazol-2-ylamine], the Ki under setting [1] stood at 0.0024 µM.

For the compound `NC1=N[C@@H](COc2ccc(Cl)cc2)CO1` [Example 216, (S)-4-(4-Chloro-phenoxymethyl)-4,5-dihydro-oxazol-2-ylamine], under setting [1], the Ki worked out at 0.002 µM.

Compound `NC1=NC(c2cc(Cl)ccc2C(F)(F)F)CO1` (racemic) [Example 225, (RS)-4-(5-Chloro-2-trifluoromethyl-phenyl)-4,5-dihydro-oxazol-2-ylamine] returned a Ki of 0.0062 µM.

As for `NC1=N[C@@H](c2ccc(Cl)cc2C2CC2)CO1` [Example 369, (+)-(S)-4-(4-Chloro-2-cyclopropyl-phenyl)-4,5-dihydro-oxazol-2-ylamine], under setting [1], the Ki worked out at 0.0009 µM.

Take `NC1=N[C@@H](CCc2cccc(F)c2)CO1` [Example 112, (S)-4-[2-(3-Fluoro-phenyl)-ethyl]-4,5-dihydro-oxazol-2-ylamine]: under setting [1], the Ki came to 0.0012 µM.

For the compound `CCC(C[C@H]1COC(N)=N1)c1ccc(Cl)cc1` (stereo partly drawn) [Example 162, (S)-4-[2-(4-Chloro-phenyl)-butyl]-4,5-dihydro-oxazol-2-ylamine], under setting [1], the Ki worked out at 0.0025 µM.

For the compound `NC1=N[C@@H](CCc2cc(C(F)(F)F)ccc2C(F)(F)F)CO1` [Example 160, (S)-4-[2-(2,5-Bis-trifluoromethyl-phenyl)-ethyl]-4,5-dihydro-oxazol-2-ylamine], the Ki under setting [1] stood at 0.0028 µM.

On to `NC1=N[C@@H](CCc2ccc(Cl)c(C(F)(F)F)c2)CO1` [Example 144, (S)-4-[2-(4-Chloro-3-trifluoromethyl-phenyl)-ethyl]-4,5-dihydro-oxazol-2-ylamine], for which the Ki under setting [1] stood at 0.0012 µM.

`NC1=NC(c2ccc3ccccc3c2)CO1` (racemic) [Example 33, (RS)-4-Naphthalen-2-yl-4,5-dihydro-oxazol-2-ylamine] gave a Ki of 0.0007 µM.

Consider `CC[C@H](C[C@H]1COC(N)=N1)c1ccccc1` [Example 293, (S)-4-((R)-2-Phenyl-butyl)-4,5-dihydro-oxazol-2-ylamine], for which the Ki under setting [1] is 0.0062 µM.
